We go through one compound from patent US8652999B1, “Herbicidal compositions comprising 4-amino-3-chloro-5-fluoro-6-(4-chloro-2-fluoro-3-methoxyphenyl)pyridine-2-carboxylic acid or a derivative thereof and a sulfonylaminocarbonyltriazolinone” (Dow AgroSciences, LLC., priority 2012, dated 2014).

Holding throughout (format): in vivo
In assay [1] the test system is Apera spica-venti (APESV). The assay can be described thus: Postemergence herbicidal activity, greenhouse, APESV. Particulars: foliar, 20-22 days. The procedure:
(§1) Evaluation of Postemergence Herbicidal Activity of Mixtures in Cereal Crops
(§2) Seeds of the desired test plant species were planted in Sun Gro MetroMix® 306 planting mixture, which typically has a pH of 6.0 to 6.8 and an organic matter content of about 30 percent, in plastic pots with a surface area of 103.2 square centimeters (cm^2). […] The plants were grown for 7-36 days in a greenhouse with an approximate 14 hour photoperiod which was maintained at about 18° C. during the day and 17° C. during the night. Nutrients and water were added on a regular basis and supplemental lighting was provided with overhead metal halide 1000-Watt lamps as necessary. The plants were employed for testing when they reached the second or third true leaf stage.
(§3) Treatments consisted of the benzyl ester of the compound of formula (I) (Compound A as listed in Tables 1-8) and a second cereal herbicide alone and in combination. […] The concentrated stock solutions were diluted to 1.5 mg ai/mL with the addition of 2 volumes of an aqueous mixture containing acetone, water, isopropyl alcohol, DMSO, Agri-dex crop oil concentrate, and Triton® X-77 surfactant in a 64.7:26.0:6.7:2.0:0.7:0.01 v/v ratio. A dilution solution was prepared by mixing 1 volume of 97:3 v/v acetone/DMSO and 2 volumes of an aqueous mixture containing acetone, water, isopropyl alcohol, DMSO, Agri-dex crop oil concentrate, and Triton® X-77 surfactant in a 64.7:26.0:6.7:2.0:0.7:0.01 v/v ratio. Compound requirements are based upon a 12 mL application volume at a rate of 187 liters per hectare (L/ha). […] Formulated compounds were applied to the plant material with an overhead Mandel track sprayer equipped with 8002E nozzles calibrated to deliver 187 L/ha over an application area of 0.503 square meters (m^2) at a spray height of 18 inches (43 cm) above average plant canopy. Control plants were sprayed in the same manner with the solvent blank.
(§4) The treated plants and control plants were placed in a greenhouse as described above and watered by sub-irrigation to prevent wash-off of the test compounds. After 20-22 days, the condition of the test plants as compared with that of the control plants was determined visually and scored on a scale of 0 to 100 percent where 0 corresponds to no injury and 100 corresponds to complete kill.
(§5) Colby's equation was used to determine the herbicidal effects expected from the mixtures (Colby, S. R. 1967. Calculation of the synergistic and antagonistic response of herbicide combinations. Weeds 15:20-22.). Specifically, the following equation was used to calculate the expected activity of mixtures containing two active ingredients, A and B: Expected=A+B−(A×B/100) • A=observed efficacy of active ingredient A at the same concentration as used in the mixture. • B=observed efficacy of active ingredient B at the same concentration as used in the mixture.

In assay [2] the test system is Alopecurus myosuroides (ALOMY). The assay is described as follows: Postemergence herbicidal activity, greenhouse, ALOMY. Particulars: foliar, 20-22 days. The procedure: as §1, §2, §3, §4, §5
Another assay concerns Setaria viridis (SETVI). The assay is described as follows: Postemergence herbicidal activity, greenhouse, SETVI. Conditions: foliar, 20-22 days. The procedure: as §1, §2, §3, §4
(§6) Colby's equation was used to determine the herbicidal effects expected from the mixtures (Colby, S. R. 1967. Calculation of the synergistic and antagonistic response of herbicide combinations. Weeds 15:20-22.). […]

For the next assay, the system named is Stellaria media (STEME). The assay is described as follows: Postemergence herbicidal activity, greenhouse, STEME. Particulars: foliar, 20-22 days. The procedure: as §1, §2, §3, §4, §5
For a further assay, the system named is Cirsium arvense (CIRAR). The assay is described as follows: Postemergence herbicidal activity, greenhouse, CIRAR. Particulars: Propoxycarbazone-Na 15 g/ha; foliar; 20-22 days. The protocol:
as §1, §2, §3, §4, §5

Assay [3] relates to Matricaria chamomila (MATCH). The assay can be described thus: Postemergence herbicidal activity, greenhouse, MATCH. Particulars: foliar, 20-22 days. The procedure:
as §1, §2, §3, §4, §5

Another assay relates to Lamium purpureum (LAMPU). The assay is described as follows: Postemergence herbicidal activity, greenhouse, LAMPU. Particulars: Propoxycarbazone-Na 15 g/ha; foliar; 20-22 days. The procedure: as §1, §2, §3, §4, §6
The test system of assay [4] is Triticum aestivum (TRZAW). The assay can be described thus: Postemergence herbicidal activity, greenhouse, TRZAW. Conditions: foliar, 20-22 days. The protocol:
as §1, §2, §3, §4, §5

The subject of a further assay is Papaver rhoeas (PAPRH). The assay is described as follows: Postemergence herbicidal activity, greenhouse, PAPRH. Conditions: foliar, 20-22 days. The protocol:
as §1, §2, §3, §4, §5

Assay [5] concerns Lolium multiflorum subsp. gaudini (LOLMG). The assay can be described thus: Postemergence herbicidal activity, greenhouse, LOLMG. Particulars: foliar, 20-22 days. The procedure: as §1, §2, §3, §4, §5
The next assay deals with Viola tricolor (VIOTR). The assay can be described thus: Postemergence herbicidal activity, greenhouse, VIOTR. Conditions: foliar, 20-22 days. The protocol: as §1, §2, §3, §4, §5
The test system of another assay is Kochia scoparia (KCHSC). The assay is described as follows: Postemergence herbicidal activity, greenhouse, KCHSC. Conditions: foliar, 20-22 days. The protocol:
as §1, §2, §3, §4, §5

The mark [6] stands for this setting: Propoxycarbazone-Na 7.5 g ai/ha.

For the compound `CCCOc1nn(C(=O)NS(=O)(=O)c2ccccc2C(=O)OC)c(=O)n1C` [Propoxycarbazone-Na, methyl 2-[[[(4,5-dihydro-4-methyl-5-oxo-3-propoxy-1H-1,2,4-triazol-1-yl)-carbonyl]amino]sulfonyl]benzoate], the “APESV Obs” value worked out at 17% in [1] (Propoxycarbazone-Na 7.5 g ha) and 23% in assay [1] (Propoxycarbazone-Na 15 g ha). Moreover, the “ALOMY Obs” value in assay [2] (Propoxycarbazone-Na 7.5 g ha) was 10%; in assay [2] (Propoxycarbazone-Na 15 g ha), 43%. Moreover, the “SETVI Obs” value with Setaria viridis (SETVI) (Propoxycarbazone-Na 7.5 g ha) and in the assay with Setaria viridis (SETVI) (Propoxycarbazone-Na 15 g ha) was 0% each time. Besides, the “STEME Obs” value in the assay with Stellaria media (STEME) (setting [6]) was determined as 12%; in the assay with Stellaria media (STEME) (Propoxycarbazone-Na 15 g ai/ha), 10%; in the assay on Stellaria media (STEME) (Propoxycarbazone-Na 15 g/ha) it was 45%. The “CIRAR Obs” value in the assay on Cirsium arvense (CIRAR) is on record as 65%. Moreover, the “MATCH Obs” value is 13% in assay [3] (setting [6]) and 20% in assay [3] (Propoxycarbazone-Na 15 g ai/ha). In addition, the “LAMPU Obs” value in the assay with Lamium purpureum (LAMPU) was found to be 0%. Moreover, the “TRZAW Obs” value in assay [4] (setting [6]) came out at 8%; in assay [4] (Propoxycarbazone-Na 15 g ai/ha) it was 5%. The “PAPRH Obs” value with Papaver rhoeas (PAPRH) (setting [6]) came out at 18%; in the assay with Papaver rhoeas (PAPRH) (Propoxycarbazone-Na 15 g ai/ha) it was 23%. The “LOLMG Obs” value in assay [5] (Propoxycarbazone-Na 7.5 g ha) is 3%; in assay [5] (Propoxycarbazone-Na 15 g ha), 20%. Further, the “VIOTR Obs” value is reported as 13% with Viola tricolor (VIOTR) (setting [6]) and 23% in the assay with Viola tricolor (VIOTR) (Propoxycarbazone-Na 15 g ai/ha). Further, the entries for the “KCHSC Obs” value with Kochia scoparia (KCHSC) (setting [6]) and with Kochia scoparia (KCHSC) (Propoxycarbazone-Na 15 g ai/ha) were 13% and 25%, respectively.
